In publication PMC7179119, “A New Positron Emission Tomography Probe for Orexin Receptors Neuroimaging” (Molecules, 2020):
Read-outs that look alike come from different tables or passages of the source.

Legend:
Assay in all cases: PDSP off-target radioligand binding assay
MOR = MOR (Homo sapiens, UniProt P35372)
Method: (§1) Table S1. Off binding data of CW24.
(§2) The off-target binding assays were performed at PDSP with their standard protocol (https://pdspdb.unc.edu/pdspWeb/content/UNC-CH%20Protocol%20Book.pdf). In radioligand binding assays, CW24 was tested at a single concentration (10 µM) and in quadruplicate in 96-well plates. The binding assays were carried out in a final of volume of 125 µl per well in appropriate binding buffers. The hot ligand concentration is usually at a concentration close to the Kd (unless otherwise indicated). Total binding and nonspecific binding are determined in the absence and presence of 10 µM of the appropriate reference compound, respectively. In brief, plates are usually incubated at room temperature and in the dark for 90 mins. Reactions are stopped by vacuum filtration onto 0.3% polyethyleneimine (PEI) soaked 96-well filter mats using a 96-well Filtermate harvester, followed by three washes with cold wash buffers (for details, see Tables 2 to 24). Scintillation cocktail is then melted onto the microwave-dried filters on a hot plate and radioactivity is counted in a Microbeta counter.
(§3) Receptor % Inhibition 1 % Inhibition 2 % Inhibition 3 % Inhibition 4 Mean±SD %

5-HT5A = biological target: T1, 5-HT5A (Homo sapiens, UniProt P47898)
T1 construct: NIMH PDSP
Method: as §1, §2, §3

M1 = biological target: T2, M1 (Homo sapiens, UniProt P11229)
T2 sequence (P11229 1-460): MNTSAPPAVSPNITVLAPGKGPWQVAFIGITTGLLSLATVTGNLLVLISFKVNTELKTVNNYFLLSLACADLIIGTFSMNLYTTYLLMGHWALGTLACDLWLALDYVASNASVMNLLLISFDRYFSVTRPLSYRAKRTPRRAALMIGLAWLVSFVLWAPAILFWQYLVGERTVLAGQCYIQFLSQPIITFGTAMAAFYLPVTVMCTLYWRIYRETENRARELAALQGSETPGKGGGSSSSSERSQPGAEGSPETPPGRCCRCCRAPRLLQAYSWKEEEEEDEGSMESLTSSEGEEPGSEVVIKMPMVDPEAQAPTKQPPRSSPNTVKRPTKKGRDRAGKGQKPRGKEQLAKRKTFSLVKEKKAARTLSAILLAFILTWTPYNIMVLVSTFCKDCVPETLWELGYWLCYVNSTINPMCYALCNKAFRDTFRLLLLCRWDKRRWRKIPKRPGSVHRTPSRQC
Method: as §1, §2, §3

5-HT1D = biological target: T3, 5-HT1D (Homo sapiens, UniProt P28221)
T3 construct: NIMH PDSP
Method: as §1, §2, §3

H1 = H1 (Homo sapiens, UniProt P35367)
Method: as §1, §2, §3

Sigma 2 = conditions: 10 µM
Method: as §1, §2, §3

Sigma 1 = conditions: 10 µM
Method: as §1, §2, §3

GABAA = conditions: 10 µM
Method: as §1, §2, §3

5-HT2C = biological target: T4, 5-HT2C (Homo sapiens, UniProt P28335)
T4 construct: NIMH PDSP
T4 sequence (P28335 33-458): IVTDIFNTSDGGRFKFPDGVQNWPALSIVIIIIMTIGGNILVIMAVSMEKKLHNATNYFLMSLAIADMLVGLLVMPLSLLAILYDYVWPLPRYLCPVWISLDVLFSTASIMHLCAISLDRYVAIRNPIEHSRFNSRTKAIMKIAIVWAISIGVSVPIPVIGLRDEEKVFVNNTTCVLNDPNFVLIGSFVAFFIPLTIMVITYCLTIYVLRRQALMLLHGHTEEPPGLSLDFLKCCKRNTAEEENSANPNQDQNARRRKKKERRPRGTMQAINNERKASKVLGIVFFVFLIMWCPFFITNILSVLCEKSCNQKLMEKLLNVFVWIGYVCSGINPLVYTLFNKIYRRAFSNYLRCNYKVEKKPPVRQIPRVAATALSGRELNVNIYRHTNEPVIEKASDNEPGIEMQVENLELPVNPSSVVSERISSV
Method: as §1, §2, §3

DAT = DAT (Homo sapiens, UniProt Q01959)
Method: as §1, §2, §3

H2 = H2 (Homo sapiens, UniProt P25021)
Method: as §1, §2, §3

[1] = quadruplicate, read-out: Mean±SD % inhibition
[2] = replicate 1, read-out: % Inhibition 1
[3] = replicate 2, read-out: % Inhibition 2
[4] = replicate 3, read-out: % Inhibition 3
[5] = replicate 4, read-out: % Inhibition 4

T3 sequence (P28221 whole entry, species assumed): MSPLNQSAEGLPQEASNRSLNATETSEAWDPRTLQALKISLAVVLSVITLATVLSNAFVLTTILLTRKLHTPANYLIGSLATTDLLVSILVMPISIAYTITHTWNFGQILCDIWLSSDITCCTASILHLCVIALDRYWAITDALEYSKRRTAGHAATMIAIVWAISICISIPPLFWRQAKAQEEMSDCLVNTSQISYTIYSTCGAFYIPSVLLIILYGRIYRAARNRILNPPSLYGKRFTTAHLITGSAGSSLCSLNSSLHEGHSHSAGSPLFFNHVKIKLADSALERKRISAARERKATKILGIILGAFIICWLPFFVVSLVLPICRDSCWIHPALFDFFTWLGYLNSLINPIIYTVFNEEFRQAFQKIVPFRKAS
Sequence of DAT (Q01959 whole entry, species assumed): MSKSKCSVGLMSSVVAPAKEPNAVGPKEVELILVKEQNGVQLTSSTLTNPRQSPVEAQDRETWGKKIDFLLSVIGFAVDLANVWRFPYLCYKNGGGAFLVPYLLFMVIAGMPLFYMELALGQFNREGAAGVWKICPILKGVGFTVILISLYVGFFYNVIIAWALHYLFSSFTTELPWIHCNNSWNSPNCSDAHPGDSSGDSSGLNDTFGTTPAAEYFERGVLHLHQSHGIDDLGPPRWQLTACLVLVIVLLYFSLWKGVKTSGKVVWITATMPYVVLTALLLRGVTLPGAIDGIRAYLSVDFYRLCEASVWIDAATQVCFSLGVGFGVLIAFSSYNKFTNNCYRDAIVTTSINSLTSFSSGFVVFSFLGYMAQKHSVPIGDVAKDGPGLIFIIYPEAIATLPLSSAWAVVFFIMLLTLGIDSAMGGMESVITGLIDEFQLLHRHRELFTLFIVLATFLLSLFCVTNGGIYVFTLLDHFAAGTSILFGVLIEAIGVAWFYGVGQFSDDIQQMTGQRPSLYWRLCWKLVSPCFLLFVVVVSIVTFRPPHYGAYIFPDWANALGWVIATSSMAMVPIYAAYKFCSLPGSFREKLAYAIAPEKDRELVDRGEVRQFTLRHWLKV
T1 sequence (P47898 whole entry, species assumed): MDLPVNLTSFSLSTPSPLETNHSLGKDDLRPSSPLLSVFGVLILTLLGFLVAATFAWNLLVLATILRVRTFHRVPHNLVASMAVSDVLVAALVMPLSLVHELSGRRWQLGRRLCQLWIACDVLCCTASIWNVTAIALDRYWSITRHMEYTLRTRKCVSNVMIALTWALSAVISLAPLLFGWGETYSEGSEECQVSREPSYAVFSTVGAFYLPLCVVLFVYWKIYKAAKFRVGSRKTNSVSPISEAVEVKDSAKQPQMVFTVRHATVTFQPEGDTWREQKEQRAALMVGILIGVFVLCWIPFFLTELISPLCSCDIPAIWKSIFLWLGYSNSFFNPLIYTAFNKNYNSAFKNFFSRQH
Sequence of MOR (P35372 whole entry): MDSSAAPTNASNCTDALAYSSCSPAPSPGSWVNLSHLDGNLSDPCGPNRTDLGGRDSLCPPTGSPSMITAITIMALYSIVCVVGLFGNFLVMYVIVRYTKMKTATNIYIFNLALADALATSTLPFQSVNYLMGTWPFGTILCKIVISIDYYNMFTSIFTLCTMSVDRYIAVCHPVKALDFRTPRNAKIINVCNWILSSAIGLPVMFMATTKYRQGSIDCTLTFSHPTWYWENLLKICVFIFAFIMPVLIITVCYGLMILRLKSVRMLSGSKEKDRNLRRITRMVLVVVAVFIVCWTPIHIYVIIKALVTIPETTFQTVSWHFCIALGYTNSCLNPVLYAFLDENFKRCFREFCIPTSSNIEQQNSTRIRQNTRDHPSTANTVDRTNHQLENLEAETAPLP
Sequence of H2 (P25021 whole entry): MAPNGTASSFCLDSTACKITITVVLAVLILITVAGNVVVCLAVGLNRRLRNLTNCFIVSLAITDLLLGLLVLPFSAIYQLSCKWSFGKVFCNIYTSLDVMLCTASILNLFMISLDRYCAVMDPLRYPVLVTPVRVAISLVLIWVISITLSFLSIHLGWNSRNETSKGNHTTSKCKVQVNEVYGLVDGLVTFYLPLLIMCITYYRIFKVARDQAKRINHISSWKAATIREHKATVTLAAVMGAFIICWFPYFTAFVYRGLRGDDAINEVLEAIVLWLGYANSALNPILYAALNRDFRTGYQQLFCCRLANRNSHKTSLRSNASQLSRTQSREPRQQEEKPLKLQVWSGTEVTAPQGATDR
Sequence of H1 (P35367 whole entry): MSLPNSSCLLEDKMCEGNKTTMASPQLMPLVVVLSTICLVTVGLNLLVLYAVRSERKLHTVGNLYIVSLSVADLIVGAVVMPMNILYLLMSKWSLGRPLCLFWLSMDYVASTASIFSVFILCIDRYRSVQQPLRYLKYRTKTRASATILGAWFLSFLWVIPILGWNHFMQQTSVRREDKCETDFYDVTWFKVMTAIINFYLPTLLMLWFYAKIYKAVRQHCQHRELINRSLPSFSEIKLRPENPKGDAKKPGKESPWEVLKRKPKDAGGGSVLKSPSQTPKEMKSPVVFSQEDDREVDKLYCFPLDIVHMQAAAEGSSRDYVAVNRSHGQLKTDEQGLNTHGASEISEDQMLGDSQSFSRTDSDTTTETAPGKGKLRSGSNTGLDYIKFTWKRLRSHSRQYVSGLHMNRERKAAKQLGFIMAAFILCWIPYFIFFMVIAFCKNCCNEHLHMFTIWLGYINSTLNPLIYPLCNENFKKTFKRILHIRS

COc1ccnc(N2CCC3(CCCN(Cc4cn(C)c5ccccc45)C3=O)CC2)n1 [CW24]
inhibition at 10 µM (MOR; [1]): -2.04 ± 10.4% | inhibition at 10 µM (MOR; [2]): 5.06% | inhibition at 10 µM (MOR; [3]): -11.3% | inhibition at 10 µM (MOR; [4]): 8.74% | inhibition at 10 µM (MOR; [5]): -10.6% | inhibition at 10 µM (5-HT5A; [1]): -4.44 ± 7.73% | inhibition at 10 µM (5-HT5A; [2]): 5.59% | inhibition at 10 µM (5-HT5A; [3]): -6.33% | inhibition at 10 µM (5-HT5A; [4]): -13.1% | inhibition at 10 µM (5-HT5A; [5]): -3.89% | inhibition at 10 µM (M1; [1]): 0.29 ± 11.9% | inhibition at 10 µM (M1; [2]): 17.4% | inhibition at 10 µM (M1; [3]): -8.79% | inhibition at 10 µM (M1; [4]): -6.38% | inhibition at 10 µM (M1; [5]): -1.13% | inhibition at 10 µM (5-HT1D; [1]): 23.5 ± 9.4% | inhibition at 10 µM (5-HT1D; [2]): 32.1% | inhibition at 10 µM (5-HT1D; [3]): 20% | inhibition at 10 µM (5-HT1D; [4]): 11.9% | inhibition at 10 µM (5-HT1D; [5]): 30.2% | inhibition at 10 µM (H1; [1]): 10.5 ± 12.7% | inhibition at 10 µM (H1; [2]): 13% | inhibition at 10 µM (H1; [3]): -0.52% | inhibition at 10 µM (H1; [4]): 1.94% | inhibition at 10 µM (H1; [5]): 27.5% | Mean±SD % inhibition (Sigma 2; quadruplicate): 27.22 ±10.59% | % Inhibition 1 (Sigma 2; replicate 1): 42.39% | % Inhibition 2 (Sigma 2; replicate 2): 19.45% | % Inhibition 3 (Sigma 2; replicate 3): 26.56% | % Inhibition 4 (Sigma 2; replicate 4): 20.46% | Mean±SD % inhibition (Sigma 1; quadruplicate): 12.33 ± 12.50% | % Inhibition 1 (Sigma 1; replicate 1): 8.39% | % Inhibition 2 (Sigma 1; replicate 2): 1.56% | % Inhibition 3 (Sigma 1; replicate 3): 8.99% | % Inhibition 4 (Sigma 1; replicate 4): 30.38% | Mean±SD % inhibition (GABAA; quadruplicate): 11.56 ± 11.5% | % Inhibition 1 (GABAA; replicate 1): 24.87% | % Inhibition 2 (GABAA; replicate 2): 0.04% | % Inhibition 3 (GABAA; replicate 3): 4% | % Inhibition 4 (GABAA; replicate 4): 17.31% | inhibition at 10 µM (5-HT2C; [1]): 14.3 ± 40.6% | inhibition at 10 µM (5-HT2C; [2]): 28.8% | inhibition at 10 µM (5-HT2C; [3]): -38.5% | inhibition at 10 µM (5-HT2C; [4]): 8.5% | inhibition at 10 µM (5-HT2C; [5]): 58.2% | inhibition at 10 µM (DAT; [1]): 4.6 ± 8.8% | inhibition at 10 µM (DAT; [2]): -0.27% | inhibition at 10 µM (DAT; [3]): -4.72% | inhibition at 10 µM (DAT; [4]): 8.47% | inhibition at 10 µM (DAT; [5]): 14.9% | inhibition at 10 µM (H2; [1]): 24.2 ± 1.43% | inhibition at 10 µM (H2; [2]): 25.4% | inhibition at 10 µM (H2; [3]): 24.4% | inhibition at 10 µM (H2; [4]): 24.8% | inhibition at 10 µM (H2; [5]): 22.1%
